Reference: the NIST ThermoML archive (doi:10.1021/je8007759)

Assay: xn = mol fraction of the nth substance listed

CC1CCC(=O)O1 (stereo not given) [γ-valerolactone] + O=C=O
mass density [kg/m3], Fluid (supercritical or subcritical phases), Pycnometric method
Details | 308.2 K | 313.2 K
7520 kPa, x1 = 0.1 | 928 | –
7560 kPa, x1 = 0.05 | 838 | –
7630 kPa, x1 = 0.01 | 665 | –
7630 kPa, x1 = 0.05 | 842 | –
7640 kPa, x1 = 0.025 | 781 | –
7650 kPa, x1 = 0.01 | 669 | –
7670 kPa, x1 = 0.01 | 673 | –
7670 kPa, x1 = 0.1 | 932 | –
7690 kPa, x1 = 0.01 | 677 | –
7710 kPa, x1 = 0.05 | 845 | –
7710 kPa, x1 = 0.15 | 979 | –
7720 kPa, x1 = 0.01 | 681 | –
7720 kPa, x1 = 0.025 | 786 | –
7750 kPa, x1 = 0.01 | 685 | –
7790 kPa, x1 = 0.01 | 690 | –
7810 kPa, x1 = 0.1 | 935 | –
7820 kPa, x1 = 0.025 | 792 | –
7830 kPa, x1 = 0.01 | 694 | –
7850 kPa, x1 = 0.05 | 850 | –
7870 kPa, x1 = 0.01 | 698 | –
7910 kPa, x1 = 0.01 | 703 | –
7930 kPa, x1 = 0.025 | 798 | –
7970 kPa, x1 = 0.01 | 710 | –
8050 kPa, x1 = 0.01 | 717 | –
8060 kPa, x1 = 0.025 | 804 | –
8110 kPa, x1 = 0.05 | 855 | –
8150 kPa, x1 = 0.01 | 724 | –
8170 kPa, x1 = 0.025 | 809 | –
8200 kPa, x1 = 0.15 | – | 962
8230 kPa, x1 = 0.15 | 982 | –
8300 kPa, x1 = 0.01 | 734 | 547
8310 kPa, x1 = 0.01 | – | 557
8320 kPa, x1 = 0.01 | – | 561
8330 kPa, x1 = 0.01 | – | 565
8340 kPa, x1 = 0.01 | – | 568
8340 kPa, x1 = 0.05 | – | 809
8340 kPa, x1 = 0.1 | 942 | –
8350 kPa, x1 = 0.01 | – | 572
8350 kPa, x1 = 0.025 | 815 | –
8400 kPa, x1 = 0.05 | 862 | –
8460 kPa, x1 = 0.01 | 744 | –
8530 kPa, x1 = 0.025 | 822 | –
8670 kPa, x1 = 0.01 | 754 | –
8680 kPa, x1 = 0.1 | 946 | –
8700 kPa, x1 = 0.025 | 827 | –
8750 kPa, x1 = 0.05 | 869 | –
8830 kPa, x1 = 0.15 | 985 | –
8910 kPa, x1 = 0.01 | 765 | –
8940 kPa, x1 = 0.025 | 833 | –
9140 kPa, x1 = 0.05 | 875 | –
9180 kPa, x1 = 0.01 | 775 | –
9180 kPa, x1 = 0.025 | 840 | –
9380 kPa, x1 = 0.1 | 953 | –
9400 kPa, x1 = 0.15 | 988 | –
9410 kPa, x1 = 0.025 | 845 | –
9500 kPa, x1 = 0.01 | 787 | –
9510 kPa, x1 = 0.05 | 881 | –
9700 kPa, x1 = 0.025 | 852 | –
9890 kPa, x1 = 0.01 | 798 | –
9980 kPa, x1 = 0.15 | 991 | –
10000 kPa, x1 = 0.1 | 958 | –
10350 kPa, x1 = 0.01 | 810 | –
10720 kPa, x1 = 0.15 | 995 | –
11040 kPa, x1 = 0.1 | 967 | –
11360 kPa, x1 = 0.15 | 999 | –
11550 kPa, x1 = 0.1 | 970 | –
11980 kPa, x1 = 0.15 | 1002 | –
12070 kPa, x1 = 0.1 | 974 | –
12550 kPa, x1 = 0.1 | 978 | –
12950 kPa, x1 = 0.15 | 1006 | –
13110 kPa, x1 = 0.1 | 981 | –
13620 kPa, x1 = 0.15 | 1009 | –
13640 kPa, x1 = 0.1 | 984 | –
14250 kPa, x1 = 0.1 | 989 | –
14410 kPa, x1 = 0.15 | 1013 | –
14770 kPa, x1 = 0.1 | 992 | –
15180 kPa, x1 = 0.15 | 1016 | –
16060 kPa, x1 = 0.15 | 1020 | –
16850 kPa, x1 = 0.15 | 1023 | –

308.2 K, Liquid, high pressure variable cell
Details | mass density [kg/m3]
x1 = 0.01 | 663
x1 = 0.025 | 777
x1 = 0.05 | 834
x1 = 0.1 | 920
x1 = 0.15 | 972
